Source: paper PMC12195956 (Molecules, 2025)
Values after ≈ are worked out from the molar mass of the structure shown. Where two headings read alike, the source gives them in different places.

How the values were obtained:
[1] = pKa and percentage ionization (Henderson–Hasselbalch equation); assay type: physicochemical
From the text: One study reported an average pH of 5.2 in psoriatic skin, compared to 5.6 in healthy skin [36]. […] The optimal pH range for topical application is 6–7 to balance efficacy and skin irritation.

[2] = previously reported value ref 37; cited from earlier work
[3] = Solubility screening of anthralin in oils, surfactants and co-surfactants; assay type: physicochemical; conditions: read-out: drug solubility
Procedure: Excess drug was dissolved in 1 mL of the aforementioned oils, surfactant, and co-surfactant, and vortexed continuously for 48 h. The samples were centrifuged at 5000–7000 rpm for 15 min after which they were left to rest for 72 h.

[4] = test system: L929 (Mouse Connective Cell Line); test: MTT assay (antipsoriatic activity); assay type: cell-based
Procedure: The L929 mouse connective tissue cell line was received from the National Center for Cell Sciences (NCCS), Pune, India and grown in DMEM media containing 10% fetal bovine serum. The cells were kept at 37 °C in a 5% CO2 incubator and seeded at a density of 1 × 10⁴ cells/mL in culture media for 24 h. To conduct the experiment, 70 μL of cell suspension (1 × 10^4 cells/well) were added to 100 μL of culture media on a 96-well tissue culture plate. Sample was added to wells at varying doses (25, 50, and 100 μg/mL), while control wells contained 0.2% DMSO in PBS with cell culture. All experiments were performed in triplicate to ensure reliability and reproducibility of the results. Control wells were utilized to evaluate cell viability and calculate the percentage of cells that survived after incubation. The cultures were incubated at 37 °C with 5% CO2 for 24 h in a CO2 incubator (Thermo Scientific BB150, Thermo Fisher Scientific Inc., Waltham, MA, USA). After incubation, the media were removed and 20 μL of MTT reagent (5 mg/mL in PBS) was added. The plates were incubated for a further 4 h at 37 °C to allow live cells to convert the MTT into formazan crystals, which were then viewed under a microscope. After removing the medium, 200 μL of DMSO was added and incubated at 37 °C for 10 min while protected from light with aluminum foil. Each sample’s absorbance was measured at 570 nm using an ELISA microplate reader (Benesphera E21, Avantor Performance Materials India Private Limited, Gurgoan, India), with triplicates tested for accuracy.

Propionibacterium = test: Antibacterial activity, zone of inhibition; assay type: cell-based; conditions: 24 h incubation
Procedure: Nutrient Agar (NA-Himedia, HiMedia Laboratories Pvt. Ltd., Mumbai, India) was prepared by dissolving 28.0 g in 1000 mL distilled water, sterilized at 121 °C for 15 min, and poured into sterile Petri plates. Propionibacterium was used for microbial assays. A 24 h pure culture was prepared by suspending the microorganisms in saline solution, streaking onto culture slants, and incubating at 37 °C. Standard solutions, including Clindamycin (25 mg/mL), were prepared in sterile water and stored under refrigeration. Plates were prepared using the pour plate method by pouring melted agar into sterile plates and allowing its solidification before use.
A sterile, non-toxic cotton swab was dipped in the standardized inoculums (turbidity was adjusted to achieve confluent growth on the Petri plate), and the entire plate’s agar surface was streaked with the swab three times, turning the plate at a 60-degree angle between streaking. The streaked inoculums were then allowed to dry for 5–15 min with the lid on. Then, using sterile well punches, a bore was punched on the prepared plates (8 mm). With the assistance of a sterile micropipette, a 10 μL dosage of produced microemulsion and standard medication Clindamycin were injected into each bore in an aseptic environment. Plates were maintained at room temperature for 30 min before being incubated for 24 h at 37 °C. The diameter of the inhibitory zones was measured using a scale in mm.
The antibacterial potential of test compounds was assessed using the mean diameter of the zone of inhibition around the disc in millimeters. The zones of inhibition of the studied microorganisms by the substances were determined on a millimeter scale.

O=C1c2c(O)cccc2Cc2cccc(O)c21 [Anthralin]
percentage ionization ([1]; pH 5.2 (psoriatic skin)): 0.01% | percentage ionization ([1]; pH 5.6 (healthy skin)): 0.03% | pKa [2]: 9.06 | solubility at 48 h ([3]; PEG 400, 27 °C, organic solvent or mixture, thermodynamic from solid, in PEG 400, room temperature (27 ± 1 °C)): 14.1 mg/mL (≈ 62.2 mM) | solubility at 48 h ([3]; Span 20, thermodynamic from solid, in Span 20): 4.23 mg/mL (≈ 18.7 mM) | solubility at 48 h ([3]; Transcutol-P, organic solvent or mixture, thermodynamic from solid, in Transcutol-P): 15.6 mg/mL (≈ 68.8 mM) | solubility at 48 h ([3]; Tween 20, thermodynamic from solid, in Tween 20): 11.6 mg/mL (≈ 51.2 mM) | solubility at 48 h ([3]; Tween 80, 27 °C, thermodynamic from solid, in Tween 80, room temperature (27 ± 1 °C)): 56 mg/mL (≈ 248 mM) | solubility at 48 h ([3]; castor oil, oil or lipid, thermodynamic from solid, in castor oil): 23.9 mg/mL (≈ 106 mM) | solubility at 48 h ([3]; ethanol, organic solvent or mixture, thermodynamic from solid, in ethanol): 9.23 mg/mL (≈ 40.8 mM) | solubility at 48 h ([3]; oleic acid, 27 °C, oil or lipid, thermodynamic from solid, in oleic acid, room temperature (27 ± 1 °C)): 44.2 mg/mL (≈ 196 mM) | solubility at 48 h ([3]; olive oil, oil or lipid, thermodynamic from solid, in olive oil): 28.2 mg/mL (≈ 125 mM) | Inhibition % ([4]; L929, 100 µg/mL, 24 h): 60.345% | inhibition at 25 µg/mL ([4]; Mus musculus, L929, 24 h, L929, 25 µg/mL, 24 h): 47.9% | inhibition at 50 µg/mL ([4]; Mus musculus, L929, 24 h, L929, 50 µg/mL, 24 h): 53% | inhibition at 100 µg/mL ([4]; Mus musculus, L929, 24 h, L929, 100 µg/mL, 24 h): 60.3% | viability at 25 µg/mL ([4]; Mus musculus, L929, 25 µg/mL, 24 h): 52.1% | viability at 50 µg/mL ([4]; Mus musculus, L929, 50 µg/mL, 24 h): 47% | viability at 100 µg/mL ([4]; Mus musculus, L929, 100 µg/mL, 24 h): 39.7% | IC50 ([4]; Mus musculus, L929, from linear regression of % inhibition vs. concentration): 36.2 µg/mL (≈ 0.16 mM)

O=c1[nH]cc(F)c(=O)[nH]1 [Batch 5-FU, 5-flurouracil]
Cell Viability % ([4]; L929, 25 µg/mL, 24 h): 33.90% | Inhibition % ([4]; L929, 25 µg/mL, 24 h): 66.10% | Cell Viability % ([4]; L929, 50 µg/mL, 24 h): 29.87% | Inhibition % ([4]; L929, 50 µg/mL, 24 h): 70.13% | Cell Viability % ([4]; L929, 100 µg/mL, 24 h): 21.00% | Inhibition % ([4]; L929, 100 µg/mL, 24 h): 79.00%

CCC[C@@H]1C[C@@H](C(=O)N[C@@H]([C@H]2O[C@H](SC)[C@H](O)[C@@H](O)[C@H]2O)[C@H](C)Cl)N(C)C1 [Clindamycin]
zone of inhibition at 25 µg/mL (Propionibacterium; 25 μg/mL): 11.3 ± 1.15 mm | zone of inhibition at 50 µg/mL (Propionibacterium; 50 μg/mL): 13.7 ± 1.15 mm | zone of inhibition at 100 µg/mL (Propionibacterium; 100 μg/mL): 20.7 ± 1.15 mm
